Results published in ChEMBL document CHEMBL1201862, “PubChem BioAssay data set” (2004).
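1) Cells in 96-well plates. 2) Compound, 48 h, 5 concentrations. 3) Linear interpolation between surrounding doses. 4) Unreached endpoint = highest concentration. GI50 marks 50% less growth.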 Active and inactive are the calls of the source. Rule as the data show it: active = GI50 up to about 1.1 µM and inactive = higher.

Legend:
Assay in all cases: growth of human tumour cells (NCI), 48 h
TK-10 = tested on: TK-10
RXF 393 = tested on: RXF 393
SK-OV-3 = tested on: SK-OV-3
DU-145 = tested on: DU-145
OVCAR-4 = tested on: OVCAR-4
MDA-MB-231 = tested on: MDA-MB-231
HCT-15 = tested on: HCT-15
COLO 205 = tested on: COLO 205
A549 = tested on: A549
NCI-H23 = tested on: NCI-H23
U-251 = tested on: U-251
HOP-92 = tested on: HOP-92
HL-60 = tested on: HL-60
SK-MEL-5 = tested on: SK-MEL-5
SF-539 = tested on: SF-539
T47D = tested on: T47D
BT-549 = tested on: BT-549
NCI-H522 = tested on: NCI-H522
KM12 = tested on: KM12
ACHN = tested on: ACHN

Compound | GI50 (TK-10) | GI50 (RXF 393) | GI50 (SK-OV-3) | GI50 (DU-145) | GI50 (OVCAR-4) | GI50 (MDA-MB-231) | GI50 (HCT-15) | GI50 (COLO 205) | GI50 (A549) | GI50 (NCI-H23) | GI50 (U-251) | GI50 (HOP-92) | GI50 (HL-60) | GI50 (SK-MEL-5) | GI50 (SF-539) | GI50 (T47D) | GI50 (BT-549) | GI50 (NCI-H522) | GI50 (KM12) | GI50 (ACHN)
Nc1nc(OCC2CCCCC2)c2nc[nH]c2n1 | 7350 nM (inactive) | 9510 nM (inactive) | 14900 nM (inactive) | 9770 nM (inactive) | 13200 nM (inactive) | 25000 nM (inactive) | 8050 nM | 13000 nM (inactive) | 15500 nM (inactive) | 17700 nM (inactive) | 16800 nM (inactive) | 10300 nM (inactive) | 19100 nM (inactive) | 15200 nM (inactive) | 11500 nM (inactive) | 6980 nM (inactive) | 13900 nM (inactive) | 9100 nM (inactive) | 15700 nM (inactive) | 1300 nM (inactive)
CC(C)=CCC[C@@H](C)c1c2nc3ccccc3sc-2c(C)c(=O)c1O | 12800 nM (inactive) | 9350 nM (inactive) | 7740 nM (inactive) | 17500 nM (inactive) | 6430 nM (inactive) | 15100 nM (inactive) | 2320 nM | 18800 nM (inactive) | 5620 nM (inactive) | 5930 nM (inactive) | 6380 nM (inactive) | 18900 nM (inactive) | 1510 nM (inactive) | 3100 nM (inactive) | 3010 nM (inactive) | 3450 nM (inactive) | 31000 nM (inactive) | 1820 nM (inactive) | 4600 nM (inactive) | 2650 nM (inactive)
C/C1=C\[C@H](C)C[C@H](C)OC(=O)C[C@H](c2ccc(O)cc2)NC(=O)[C@@H](Cc2c(Br)[nH]c3ccccc23)N(C)C(=O)[C@H](C)NC(=O)[C@@H](C)C1 [JASPAMIDE] | 294 nM (active) | 36.9 nM (active) | 185 nM (active) | 59.4 nM (active) | 173 nM (active) | 28.7 nM (active) | 834 nM | 207 nM (active) | 172 nM (active) | 467 nM (active) | 243 nM (active) | 237 nM (active) | 132 nM (active) | 158 nM (active) | 24.9 nM (active) | 51.2 nM (active) | 29.2 nM (active) | 203 nM (active) | 264 nM (active) | 199 nM (active)
C=CCNC1=C2C[C@@H](C)C[C@@H](OC)[C@H](OC(=O)CN(C)C)[C@H](C)/C=C(\C)[C@@H](OC(N)=O)[C@H](OC)/C=C\C=C(/C)C(=O)NC(=CC1=O)C2=O | 54.3 nM (active) | 1780 nM (inactive) | 27.9 nM (active) | < 10 nM (active) | 3410 nM (inactive) | 2560 nM (inactive) | 535 nM | < 12.6 nM (active) | 56.2 nM (active) | 43 nM (active) | 188 nM (active) | 6120 nM (inactive) | 406 nM (active) | 53.8 nM (active) | 71 nM (active) | 4820 nM (inactive) | 4720 nM (inactive) | 183 nM (active) | 24 nM (active) | 802 nM (active)
